The subject of data set [1] is Enterobacter cloacae 908RN. Briefly: minimum inhibitory concentration (MIC). In kind it is cell-based. The procedure:
(§1) The minimum inhibitory concentration (MIC) of the compounds obtained in the above Examples were measured according to the standard method of Japan Society of Chemotherapy.

The subject of data set [2] is Pseudomonas aeruginosa 4au542. Briefly: minimum inhibitory concentration (MIC). In kind it is cell-based. The note with it: Tables 2A, 2B. The procedure:
as §1

The test system of data set [3] is Citrobacter freundii 1R523. Put plainly: minimum inhibitory concentration (MIC). In kind it is cell-based. The procedure: as §1
The test system of data set [4] is Enterobacter cloacae GN7471. Briefly: minimum inhibitory concentration (MIC). Type of data set: cell-based. The procedure:
as §1

Data set [5] concerns Serratia marcescens GN10857. Put plainly: minimum inhibitory concentration (MIC). In kind it is cell-based. The note with it: Tables 2A, 2B. The procedure:
as §1

Data set [6] concerns Pseudomonas cepacia OF189. Briefly: minimum inhibitory concentration (MIC). In kind it is cell-based. The note with it: Burkholderia cepacia, Tables 2A, 2B. The procedure: as §1
The test system of data set [7] is Citrobacter freundii 1R526. Put plainly: minimum inhibitory concentration (MIC). Type of data set: cell-based. The procedure: as §1
Data set [8] deals with Klebsiella pneumoniae 4at521. Put plainly: minimum inhibitory concentration (MIC). As to conditions: Tables 2A, 2B. In kind it is cell-based. The procedure:
as §1

Data set [9] deals with Citrobacter freundii GM7391. Put plainly: minimum inhibitory concentration (MIC). Type of data set: cell-based. The procedure: as §1
Data set [10] concerns Citrobacter freundii GN7391. Put plainly: minimum inhibitory concentration (MIC). In kind it is cell-based. The procedure:
as §1

Data set [11] concerns Enterobacter cloacae IV25. Briefly: minimum inhibitory concentration (MIC). In kind it is cell-based. The procedure:
as §1

For the next data set, the system named is Escherichia coli ML4704. Briefly: minimum inhibitory concentration (MIC). Type of data set: cell-based. The procedure: as §1
Data set [12] has as its system Citrobacter freundii 1R524. Briefly: minimum inhibitory concentration (MIC). In kind it is cell-based. The procedure:
as §1

Another data set concerns Proteus vulgris GN7919. Briefly: minimum inhibitory concentration (MIC). Type of data set: cell-based. The procedure:
as §1

Data set [13] relates to Pseudomonas aeruginosa 5D58-1. Put plainly: minimum inhibitory concentration (MIC). The note with it: 5D581, Tables 2A, 2B. In kind it is cell-based. The procedure: as §1
The subject of data set [14] is Citrobacter freundii 1U589. Briefly: minimum inhibitory concentration (MIC). In kind it is cell-based. The procedure:
as §1

In data set [15] the test system is Pseudomonas aeruginosa GN10362. Put plainly: minimum inhibitory concentration (MIC). Type of data set: cell-based. The note with it: Tables 2A, 2B. The procedure:
as §1

Data set [16] concerns Citrobacter freundii 1U592. Briefly: minimum inhibitory concentration (MIC). Type of data set: cell-based. The procedure: as §1
Another data set has as its system Escherichia coli GN5482. Briefly: minimum inhibitory concentration (MIC). In kind it is cell-based. The note with it: Tables 2A, 2B. The procedure:
as §1

Data set [17] relates to Pseudomonas maltophilia OF247. Briefly: minimum inhibitory concentration (MIC). In kind it is cell-based. As to conditions: Stenotrophomonas maltophilia, Tables 2A, 2B. The procedure: as §1
The subject of data set [18] is Citrobacter freundii 5D60-1. Put plainly: minimum inhibitory concentration (MIC). In kind it is cell-based. The procedure:
as §1

Data set [19] has as its system Citrobacter freundii 1R527. Put plainly: minimum inhibitory concentration (MIC). Type of data set: cell-based. The procedure: as §1
The subject of data set [20] is Staphylococcus aureus Smith. Put plainly: minimum inhibitory concentration (MIC), standard method of Japan Society of Chemotherapy. Type of data set: cell-based. The note with it: Tables 2A, 2B. The procedure: as §1
The next data set in a line: in vivo. Also noted: species or system cynomolgus monkeys. As to conditions: cynomolgus monkey, 20 mg/kg. The procedure: 20 mg/kg of compound obtained in the above Example 18 was administered parenterally to cynomolgus monkeys and the half-life in blood was measured.
The concentration of the compound was measured according to HPLC method. Novapack C18 or Microbondapack C18 (both trade name, produced by Waters Co.) was used for analysis. Further, cefpiramide was used as a control drug.

For data set [21] the following is noted: among existing cephalosporins; known; cited from earlier work.
In data set [22] the test system is Staphylococcus aureus IAA498. Briefly: minimum inhibitory concentration (MIC). In kind it is cell-based. As to conditions: Tables 2A, 2B. The procedure: as §1
Data set [23] relates to Enterobacter cloacae IY247. Put plainly: minimum inhibitory concentration (MIC). Type of data set: cell-based. The procedure:
as §1

Data set [24] has as its system Enterobacter cloacae 5D52-2. Briefly: minimum inhibitory concentration (MIC). In kind it is cell-based. The note with it: 5D522. The procedure: as §1
Data set [25] has as its system Enterobacter cloacae 5D83-2. Briefly: minimum inhibitory concentration (MIC). As to conditions: 5D832. Type of data set: cell-based. The procedure: as §1
Where [26] appears, read: Enterobacter cloacae 908RN, Tables 2A, 2B.
Setting [27] is: Escherichia coli ML4704, Tables 2A, 2B, read-out: MIC.
Setting [28] is: Enterobacter cloacae GN7471, Tables 2A, 2B, read-out: MIC.
Setting [29] is: Citrobacter freundii GN7391, Tables 2A, 2B, read-out: MIC.
[30] abbreviates: Proteus vulgris GN7919, Tables 2A, 2B, read-out: MIC.

Values after ≈ are worked out from the molar mass of the structure shown. Where a name gives a salt, the structure may show the parent alone. Read-outs that look alike come from different tables or passages of the source. Bounds are passed on as bounds.

Regarding `CC(C)(O/N=C(\C(=O)N[C@@H]1C(=O)N2C(C(=O)[O-])=C(C[n+]3ccccc3)CS[C@H]12)c1csc(N)n1)C(=O)O` [CAZ, ceftazidime, reference compound], the minimal inhibitory concentration (MIC) (usually the smallest concentration in the dilution series that meets the test's criterion for growth inhibition) in data set [1] (Enterobacter cloacae 908RN, Table 3, clinical isolates resistant to ceftazidime) was above 100 µg/mL; in [1] (setting [26]) it was 100 µg/mL (≈ 183 µM); in data set [2], 3.13 µg/mL (≈ 5.73 µM); in data set [3], 25 µg/mL (≈ 45.7 µM); in data set [4] (Enterobacter cloacae, GN7471) it was 3.13 µg/mL (≈ 5.73 µM); in [5], 3.13 µg/mL (≈ 5.73 µM). Further, the MIC was 6.25 µg/mL (≈ 11.4 µM) in [6]; 25 µg/mL (≈ 45.7 µM) in [7]; 0.1 µg/mL (≈ 0.183 µM) in [8]; above 100 µg/mL in data set [9]; above 100 µg/mL in [10] (Citrobacter freundii, GN7391); 50 µg/mL (≈ 91.5 µM) in [11]. Besides, the MIC in the data set with Escherichia coli ML4704 (setting [27]) was determined as 0.05 µg/mL (≈ 0.0915 µM); in data set [12], 25 µg/mL (≈ 45.7 µM); in the data set on Proteus vulgris GN7919, 1.56 µg/mL (≈ 2.85 µM); in data set [13] it was 1.56 µg/mL (≈ 2.85 µM); in data set [14], 100 µg/mL (≈ 183 µM); in data set [15], 1.56 µg/mL (≈ 2.85 µM). For the same molecule, the MIC in data set [16] is 100 µg/mL (≈ 183 µM); in the data set with Escherichia coli GN5482, 1.56 µg/mL (≈ 2.85 µM); in [17] it was 3.13 µg/mL (≈ 5.73 µM); in data set [18] (5D601), above 100 µg/mL; in data set [19], 25 µg/mL (≈ 45.7 µM); in [20], 6.25 µg/mL (≈ 11.4 µM).
`Cc1cc(O)c(C(=O)N[C@@H](C(=O)N[C@@H]2C(=O)N3C(C(=O)O)=C(CSc4nnnn4C)CS[C@H]23)c2ccc(O)cc2)cn1` [Cefpiramide, cefpiramide, reference compound]: the half-life (usually the time needed for the level to fall by half in the phase considered) in “in vivo” was 2.5 h. Moreover, the half-life in blood entry in [21] was “long half-life in blood”.
For the molecule `Cc1cc(SCC2=C(C(=O)O)N3C(=O)C(NC(=O)C(=NOC(C)(C)C(=O)NNC(=O)c4ccc(O)c(O)c4)c4csc(N)n4)C3SC2)n2nc(CO)nc2n1` (stereo not shown) [Example 18, 7-{2-[2-amino-1,3-thiazol-4-yl]-2-[1-(3-(3,4-dihydroxybenzoyl)carbazoyl)-1-methylethoxyimino]acetamide}-3-[(2-hydroxymethyl-5-methyl-s-triazolo[1,5-a]pyrimidin-7-yl)thiomethyl]-3-cephem-4-carboxylic acid.sodium salt], the minimal inhibitory concentration (MIC) turned out to be 12.5 µg/mL in data set [1] (Enterobacter cloacae 908RN, Table 3, clinical isolates resistant to ceftazidime, read-out: MIC); 6.25 µg/mL in data set [1] (Enterobacter cloacae 908RN, Tables 2A, 2B, read-out: MIC); 0.2 µg/mL in [2]; 0.78 µg/mL in data set [3] (read-out: MIC); 6.25 µg/mL in [4] (setting [28]); 6.25 µg/mL in data set [22]. In addition, the MIC in data set [5] came out at 0.78 µg/mL; in [6] it was 0.025 µg/mL; in data set [7] (read-out: MIC), 0.39 µg/mL; in data set [23], 6.25 µg/mL; in [8], 0.012 µg/mL; in [9] (read-out: MIC) it was 6.25 µg/mL. For the same molecule, the MIC was 12.5 µg/mL in [10] (setting [29]); 1.56 µg/mL in data set [11] (read-out: MIC); 0.012 µg/mL with Escherichia coli ML4704 (setting [27]); 0.39 µg/mL in data set [12] (read-out: MIC); 1.56 µg/mL with Proteus vulgris GN7919 (setting [30]); 0.05 µg/mL in data set [13]. Also, the MIC in data set [14] (read-out: MIC) was found to be 1.56 µg/mL; in [24], 0.39 µg/mL; in data set [15] it was 0.05 µg/mL; in [16] (read-out: MIC), 25 µg/mL; in data set [25], 0.78 µg/mL; in the data set on Escherichia coli GN5482, 0.025 µg/mL. Besides, the MIC in data set [17] stood at 0.39 µg/mL; in data set [18] (5D601, read-out: MIC), 1.56 µg/mL; in [19] (read-out: MIC) it was 0.2 µg/mL; in data set [20], 1.56 µg/mL. Also, the half-life in the data set “in vivo” is 2.6 h.
As to `Cc1cc(SCC2=C(C(=O)[O-])N3C(=O)C(NC(=O)C(=NOC(C)(C)C(=O)NN=Cc4ccc(O)c(O)c4)c4csc(N)n4)[C@H]3SC2)n2nc(CO)nc2n1.[Na+]` (stereo partly shown) [Example 44, sodium 7-{2-[2-amino-1,3-thiazol-4-yl]-2-[1-(3-(3,4-dihydroxybenzylidene)carbazoyl)-1-methylethoxyimino]acetamido}-3-[(2-hydroxymethyl-5-methyl-s-triazolo[1,5-a]pyrimidin-7-yl)thiomethyl]-3-cephem-4-carboxylate], the minimal inhibitory concentration (MIC) in data set [1] amounted to 12.5 µg/mL; in [2], 0.78 µg/mL; in data set [4] (Enterobacter cloacae, GN7471) it was 1.56 µg/mL; in data set [22] it was 6.25 µg/mL; in data set [5] it was 0.78 µg/mL; in data set [6], 0.2 µg/mL. Also, the minimum inhibitory concentration (MIC) turned out to be 0.39 µg/mL in data set [8]; 12.5 µg/mL in data set [10] (Citrobacter freundii, GN7391); 0.39 µg/mL in the data set with Escherichia coli ML4704 (Escherichia coli, ML4704); 12.5 µg/mL with Proteus vulgris GN7919; 0.39 µg/mL in [13]; 0.78 µg/mL in [15]. Besides, the MIC with Escherichia coli GN5482 came to 0.1 µg/mL; in data set [17], 12.5 µg/mL; in [20] it was 3.13 µg/mL.
Take `COCc1nc2nc(C)cc(SCC3=C(C(=O)O)N4C(=O)C(NC(=O)C(=NOC(C)(C)C(=O)NN)c5csc(N)n5)C4SC3)n2n1` (stereo not shown) [Example 47]: the MIC in data set [1] (setting [26]) is above 100 µg/mL; in [2] it was above 100 µg/mL; in data set [4] (setting [28]) it was 50 µg/mL (≈ 72.3 µM); in data set [22], 12.5 µg/mL (≈ 18.1 µM); in data set [5] it was 100 µg/mL (≈ 145 µM); in [6], 100 µg/mL (≈ 145 µM). The minimal inhibitory concentration (MIC) in data set [8] is 6.25 µg/mL (≈ 9.03 µM); in data set [10] (setting [29]), above 100 µg/mL; in the data set with Escherichia coli ML4704 (setting [27]), 0.2 µg/mL (≈ 0.289 µM); with Proteus vulgris GN7919 (setting [30]), 50 µg/mL (≈ 72.3 µM); in data set [13], 50 µg/mL (≈ 72.3 µM); in [15] it was 50 µg/mL (≈ 72.3 µM). In addition, the minimal inhibitory concentration (MIC) was 0.78 µg/mL (≈ 1.13 µM) against Escherichia coli GN5482, 100 µg/mL (≈ 145 µM) in data set [17] and 6.25 µg/mL (≈ 9.03 µM) in data set [20].

(Values after patent US4987129A, “Cephalosporin derivatives” (priority 1987, dated 1991).)
